Data taken from publication PMC8658016, “Identification of New Compounds with Anticonvulsant and Antinociceptive Properties in a Group of 3-substituted (2,5-dioxo-pyrrolidin-1-yl)(phenyl)-Acetamides” (International Journal of Molecular Sciences, 2021).

Experiments:
[1] = tested on: Cav1.2 channel (dihydropyridine site, antagonist radioligand); assay: Radioligand binding, Cav1.2 channel (dihydropyridine site); settings: rat cerebral cortex
mice = assay: Capsaicin-induced neurogenic pain test; format: in vivo; settings: Mus musculus, ip; mice i.p.
Experimental: We used the capsaicin-induced pain model to test the impact of compound 14 on neurogenic pain. In this model, the activation of TRPV1 receptors on C-type primary afferents led to the release of inflammatory neuropeptides, contributing to the local and spinal sensitization and excitability.
The experiments were conducted on adult male Albino Swiss mice (CD-1, 18–25 g) and male Wistar rats (Krf:(WI) WU), 180–250 g) as described previously. The minimum number of animals used needed to obtain definite and normally distributed results with the utilized test. Behavioral measures were scored by trained observers, which were blind to experimental conditions. The following devices were used in the experiments: Analgesy Meter (37215, Ugo Basile), Plantar Test Apparatus (EFV5, Commat Ltd., Turkey), Plethysmometer (Plethysmometer 7140, Ugo Basile), Electronic von Frey unit (BIOSEB, France). […]
Data were presented as means ± standard error of the mean (S.E.M). […] Statistically significant differences between groups were calculated using one-way analysis of variance (ANOVA) and the post hoc Dunnett’s multiple comparison test or two-way analysis of variance (ANOVA) and the post hoc Tukey’s comparison when appropriate. […]

SH-SY5Y viability (MTS) = format: cell-based; settings: human, neuroblastoma SH-SY5Y cells
[2] = Rectal temperature measurement; format: in vivo, mouse; settings: 30 and 60 mg/kg i.p., 30 min
Experimental: Figure 4 Acute effect of compound 14 on rectal temperature in mice. Compound 14 was administered i.p. 30 min before the seizure test. Control animals received vehicle only. Each experimental group consisted of 10 animals. Each bar represents the mean difference between the pre-injection and post-injection values of rectal temperature in mice (ΔT) + S.E.M. Data were analyzed with one-way ANOVA test (GraphPad Prism 8.0.1).
In this study, we used adult male Swiss albino mice (Kołacz, Laboratory Animals Breeding, Warszawa, Poland) license no. 106/2019 (Local Ethical Committee in Lublin). […]
The timed ivPTZ test was employed to evaluate the acute effect of compound 14 on the seizure thresholds for (1) the first myoclonic twitch, (2) generalized clonic seizure with loss of righting reflex, and (3) forelimb tonus. […] The changes in temperature were recorded using an electronic thermometer (ThermoWorks, Alpine, UT, USA). […]
The probe remained in the rectum for several second, allowing for temperature stabilization. The temperature was recorded just before injection of compound 14 or vehicle and 30 min later. The difference between the pre- and post-injection temperature value was then calculated (Δ °C).

CYP2D6 = biological target: T1, CYP2D6 (Homo sapiens, UniProt P10635); assay: CYP2D6 P450-Glo luminescent assay; format: in vitro ADME; settings: 1 and 10 µM
T1 construct: purchased Promega (Madison, WI, USA)

rats = assay: Carrageenan-induced thermal hyperalgesia (radiant heat); format: in vivo, rat; settings: 80 mg/kg
Excerpt: To test the anti-inflammatory activity and the potential to attenuate inflammatory pain, we tested compound 14 in the model of carrageenan-induced aseptic inflammation. In this model, the subplantar injection of carrageenan induced an edema, mechanical, and thermal hyperalgesia. […] In our opinion, the most surprising and interesting was the long-lasting anti-edematous effect. It may result from the pharmacokinetic properties of compound 14, but also from its unique mechanism. Since inflammation is one of the critical components of neuropathy, the anti-inflammatory activity of compound 14 may be a valuable and distinctive property from classical ASDs used to treat neuropathic pain [33]. […] The pain threshold reached 87.3%, 90.9%, and 89.7% of its initial value 3, 6, and 24 h after carrageenan injection, respectively. […] The initial latency for compound 14-treated animals was 8.95 ± 0.4 s. The administration of compound 14 changed the values to 127.0%, 102.0%, 79.8%, 83.8%, and 164.4% of the initial value 1, 2, 3, 6-, and 24-h following carrageenan injection, respectively.
The experiments were conducted on adult male Albino Swiss mice (CD-1, 18–25 g) and male Wistar rats (Krf:(WI) WU), 180–250 g) as described previously. The minimum number of animals used needed to obtain definite and normally distributed results with the utilized test. Behavioral measures were scored by trained observers, which were blind to experimental conditions. The following devices were used in the experiments: Analgesy Meter (37215, Ugo Basile), Plantar Test Apparatus (EFV5, Commat Ltd., Turkey), Plethysmometer (Plethysmometer 7140, Ugo Basile), Electronic von Frey unit (BIOSEB, France). All procedures were performed according to the European Union Directive of 22 September 2010 (2010/63/EU) and approved by the Local Ethics Committee for Experiments on Animals in Krakow, Poland (resolution no. 105/2016).
Figure 8 Effect of compound 14 on carrageenan-induced oedema (A), mechanical hyperalgesia (B), and thermal hyperalgesia (C), developed after subplantar injection of 1% carrageenan in rats. Data are expressed as means ± S.E.M. for 6 animals; 0—the initial value considered as the paw volume (A) or nociceptive reaction (B,C) before carrageenan administration. Statistical significance compared to vehicle-treated animals (control): * p < 0.05, ** p < 0.01, *** p < 0.001, **** p < 0.0001. Statistical analysis: two-way ANOVA post hoc Bonferroni test. Statistical significance in different time points of control group: ^# p < 0.05, ^## p < 0.01, ^### p < 0.001. Statistical analysis: one-way ANOVA, followed by Dunnett’s multiple comparison test (GraphPad Prism 8.0.1).

T1 sequence (P10635 whole entry): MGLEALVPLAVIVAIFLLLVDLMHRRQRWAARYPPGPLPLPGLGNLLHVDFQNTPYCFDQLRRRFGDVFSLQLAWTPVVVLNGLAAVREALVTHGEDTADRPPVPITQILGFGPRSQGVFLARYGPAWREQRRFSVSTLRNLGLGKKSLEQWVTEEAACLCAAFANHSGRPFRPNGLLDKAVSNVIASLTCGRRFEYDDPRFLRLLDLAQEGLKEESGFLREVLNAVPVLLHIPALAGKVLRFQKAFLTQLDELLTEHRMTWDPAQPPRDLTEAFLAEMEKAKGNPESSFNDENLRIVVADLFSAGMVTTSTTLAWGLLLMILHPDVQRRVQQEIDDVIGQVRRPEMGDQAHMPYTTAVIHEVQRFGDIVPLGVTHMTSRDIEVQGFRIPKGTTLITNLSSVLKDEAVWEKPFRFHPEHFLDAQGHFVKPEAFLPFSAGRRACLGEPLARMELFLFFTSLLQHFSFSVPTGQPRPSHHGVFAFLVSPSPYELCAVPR

Question: For `CN(C)C1CC(=O)N(C(C(=O)N2CCN(c3cccc(C(F)(F)F)c3)CC2)c2ccccc2)C1=O.Cl` (stereo not drawn) [Compound 14, 3-(Dimethylamino)-1-(2-oxo-1-phenyl-2-(4-(3-(trifluoromethyl)phenyl)-piperazin-1-yl)ethyl)pyrrolidine-2,5-dione hydrochloride], which “% Inhibition of Control-Specific Binding, Cav1.2 channel (dihydropyridine site, antagonist radioligand)” value ([1]; 10 µM) is on record?
Answer: 6.0%

Question: And the “% Inhibition of Control-Specific Binding, Cav1.2 channel (dihydropyridine site, antagonist radioligand)” value ([1]; 50 µM)?
Answer: 75.4%

Question: What about the ED50 (mice) of the same compound?
Answer: 54.1 mg/kg

Question: And the viability at 72 h, 0.001 µM (SH-SY5Y viability (MTS); 0.001 µM, read-out: SH-SY5Y cell viability, % of the control)?
Answer: ≤ 120%

Question: What about the viability at 72 h, 10 µM (SH-SY5Y viability (MTS); 10 µM, read-out: SH-SY5Y cell viability, % of control) of the same compound?
Answer: 140%

Question: What about the “effect on body (rectal) temperature” value [2] of the same compound?
Answer: did not produce statistically significant changes

Question: What about the “effect on CYP2D6 activity” value (CYP2D6) of the same compound?
Answer: significant activation

Question: And the “latency of nociceptive response to radiant heat, % of the initial value” (from here on “latency … % of the initial value”) (rats; 1 h after carrageenan)?
Answer: 127.0%

Question: And the “latency … % of the initial value” (rats; 2 h after carrageenan)?
Answer: 102.0%

Question: And the “latency … % of the initial value” (rats; 3 h after carrageenan)?
Answer: 79.8%

Question: And the “latency … % of the initial value” (rats; 6 h after carrageenan)?
Answer: 83.8%

Question: What about the “latency … % of the initial value” (rats; 24 h after carrageenan) of the same compound?
Answer: 164.4%
